Source: patent publication US11986540B2, “Compositions including pafolacianine for the identification of malignant lesions” (ON TARGET LABORATORIES, LLC., priority 2022, dated 2024)
Read-outs that look alike come from different tables or passages of the source.

What was measured:
[1] = test system: FR-negative A549 cell tumor xenografts; experiment: Whole body imaging and tissue distribution, FR-negative A549 tumor xenografts; type: in vivo, mice
Protocol: The optimal dose range for pafolacianine with respect to tumor-to-background ratio in FR-positive tumor-bearing mice was 1 to 30 nmol/mouse, with lower fluorescence intensity observed in tumors at a lower dose (0.3 nmol) and higher fluorescence intensity observed in other tissues at doses above 30 nmol. In a second experiment, pafolacianine whole body imaging and tissue distribution was examined again; however, this experiment was performed in female nu/nu mice bearing FR-negative A549 cell tumor xenografts.

[2] = test system: tumor; experiment: Tumor to background ratios with different mass doses; type: in vivo, human; details: dose of 0.025 mg per 1 kg bodyweight
Text: Tumor to background ratios were studied with different mass doses of pafolacianine.

[3] = biological target: T1, FR (Homo sapiens, UniProt P15328); experiment: [3H]-folic acid competition binding on KB cells
T1 construct: KB cells (a derivative of HeLa cells) that over-express FR; endogenous in cells; host or cells: KB cells (HeLa derivative)

[4] = Single IV dose toxicokinetics in dogs; type: in vivo; details: for AUC(0-t) / C0: dog, in vivo
Protocol: Following a single IV administration of pafolacianine to male and female dogs, systemic exposure (C0, AUClast) to pafolacianine appeared similar between males and females at all dose levels (Table 3). Similar to rats, dog AUClast values were calculated from a range of concentration-time data with Tlast values varying from 5 minutes to 4 hours. In addition, there were limited dogs with reportable TK at 0.9 mg/kg (N=1-2). As a consequence, dose proportionality was not assessed for dogs. Terminal data were generally sparse (i.e., 2 or fewer measurable concentrations in the terminal phase, (FIG. 4). Similar to rat, parameters dependent on accurate determination of the terminal phase (AUCinf, T1/2, CL, Vz) were not reported.

[5] = Repeat once-weekly IV dose toxicokinetics in rats; type: in vivo; details: for increase in AUCinf: after 14.9-fold increase in dose; for half-life / AUC(0-inf) / C0 / clearance / Vd: rat, in vivo; for Vd: read-out: Vss
Protocol: […] On both Day 1 and Day 13, increases in pafolacianine exposure (AUCinf) were trending slightly greater than dose proportional, noting that sparse blood sampling was employed so the variability in the AUCs could not be assessed. […] CL was slow (relative to hepatic blood flow) and Vss was moderate. Mean T1/2 ranged from approximately 6 to 11 hours.

[6] = Safety in three open label clinical studies; type: in vivo, human
Protocol: The safety of the disclosed compositions were evaluated in three open label clinical studies, two studies (N=150 and N=44) in patients with ovarian cancer and one study (N=100) in patients with cancer in the lung. A total of 294 patients received 0.025 mg/kg of the disclosed compositions via intravenous administration. The mean age of patients was 63.5 years; 51% were 65 years of age or older; 89% of patients were female; and 84% of patients were white.

[7] = female dogs, 0.9 mg/kg single IV, Study Day 0, N = 1
[8] = female dogs, 9.3 mg/kg single IV, Study Day 0
[9] = female dogs, 13.9 mg/kg single IV, Study Day 0
[10] = male dogs, 0.9 mg/kg single IV, Study Day 0, N = 2
[11] = male dogs, 9.3 mg/kg single IV, Study Day 0
[12] = male dogs, 13.9 mg/kg single IV, Study Day 0
[13] = female, iv, 3.1 mg/kg, rats F, 3.1 mg/kg once-weekly IV, Day 0
[14] = female, iv, 3.1 mg/kg, rats F, 3.1 mg/kg once-weekly IV, Day 13
[15] = female, iv, 30.8 mg/kg, rats F, 30.8 mg/kg once-weekly IV, Day 0
[16] = female, iv, 30.8 mg/kg, rats F, 30.8 mg/kg once-weekly IV, Day 13
[17] = female, iv, 46.3 mg/kg, rats F, 46.3 mg/kg once-weekly IV, Day 0
[18] = female, iv, 46.3 mg/kg, rats F, 46.3 mg/kg once-weekly IV, Day 13
[19] = male, iv, 3.1 mg/kg, rats M, 3.1 mg/kg once-weekly IV, Day 0
[20] = male, iv, 3.1 mg/kg, rats M, 3.1 mg/kg once-weekly IV, Day 13
[21] = male, iv, 30.8 mg/kg, rats M, 30.8 mg/kg once-weekly IV, Day 0
[22] = male, iv, 30.8 mg/kg, rats M, 30.8 mg/kg once-weekly IV, Day 13
[23] = male, iv, 46.3 mg/kg, rats M, 46.3 mg/kg once-weekly IV, Day 0
[24] = male, iv, 46.3 mg/kg, rats M, 46.3 mg/kg once-weekly IV, Day 13
[25] = rats F, 3.1 mg/kg once-weekly IV, Day 13
[26] = rats F, 30.8 mg/kg once-weekly IV, Day 13
[27] = rats F, 46.3 mg/kg once-weekly IV, Day 13
[28] = rats M, 3.1 mg/kg once-weekly IV, Day 13
[29] = rats M, 30.8 mg/kg once-weekly IV, Day 13
[30] = rats M, 46.3 mg/kg once-weekly IV, Day 13

T1 sequence (P15328 25-234): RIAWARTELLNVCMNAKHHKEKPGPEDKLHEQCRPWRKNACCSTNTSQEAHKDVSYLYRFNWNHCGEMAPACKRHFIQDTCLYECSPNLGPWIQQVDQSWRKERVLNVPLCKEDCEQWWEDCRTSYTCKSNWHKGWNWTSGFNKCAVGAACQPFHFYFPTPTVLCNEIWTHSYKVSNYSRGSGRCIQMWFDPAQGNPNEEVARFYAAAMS

## CC1(C)C(=CC=C2CCCC(C=CC3=[N+](CCCCS(=O)(=O)[O-])c4ccc(S(=O)(=O)O)cc4C3(C)C)=C2Oc2ccc(CC(NC(=O)c3ccc(NCc4cnc5nc(N)[nH]c(=O)c5n4)cc3)C(=O)O)cc2)N(CCCCS(=O)(=O)O)c2ccc(S(=O)(=O)O)cc21 (stereo not drawn) [pafolacianine]
[1]
  fluorescence in FR-negative tumors: no fluorescence observed
  fluorescence in kidneys: fluorescence was primarily noted in kidneys
[2]
  tumor to background ratio: High
[3]
  competition with [3H]-folic acid for the receptor: competed well
[4]; [7]
  AUC(0-t): 362 ng·h/mL
  C0: 4.36 µg/mL
  DN AUClast: 0.402 (μg · h/mL)/(mg/kg)
[4]; [8]
  AUC(0-t): 17600 ng·h/mL
  C0: 61.5 µg/mL
  DN AUClast: 1.89 (μg · h/mL)/(mg/kg)
[4]; [9]
  AUC(0-t): 44000 ng·h/mL
  C0: 109 µg/mL
  DN AUClast: 3.17 (μg · h/mL)/(mg/kg)
[4]; [10]
  AUC(0-t): 397 ng·h/mL
  C0: 3.79 µg/mL
  DN AUClast: 0.442 (μg · h/mL)/(mg/kg)
[4]; [11]
  AUC(0-t): 16800 ng·h/mL
  C0: 58.5 µg/mL
  DN AUClast: 1.81 (μg · h/mL)/(mg/kg)
[4]; [12]
  AUC(0-t): 42100 ng·h/mL
  C0: 107 µg/mL
  DN AUClast: 3.03 (μg · h/mL)/(mg/kg)
[5]; Day 1, genders combined
  increase in AUCinf: ~18 fold
[5]; Day 13, genders combined
  increase in AUCinf: ~20 fold
[5]; both sexes, intravenous, rats, all doses and days, read-out: Mean T1/2 range
  half-life: 6 to 11 h
[5]; [13]
  AUC(0-inf): 19100 ng·h/mL
  C0: 21.2 µg/mL
  clearance: 2.72 mL/min/kg
  Vd: 1.08 L/kg
[5]; female, iv, 3.1 mg/kg, rats F, 3.1 mg/kg once-weekly IV, Day 0, read-out: T1/2 (converted)
  half-life: 7.18 h
[5]; [14]
  AUC(0-inf): 16600 ng·h/mL
  C0: 4.76 µg/mL
  clearance: 3.1 mL/min/kg
  Vd: 1.7 L/kg
[5]; female, iv, 3.1 mg/kg, rats F, 3.1 mg/kg once-weekly IV, Day 13, read-out: T1/2 (converted)
  half-life: 8.43 h
[5]; [15]
  AUC(0-inf): 237000 ng·h/mL
  C0: 194 µg/mL
  clearance: 2.17 mL/min/kg
  Vd: 1.14 L/kg
[5]; female, iv, 30.8 mg/kg, rats F, 30.8 mg/kg once-weekly IV, Day 0, read-out: T1/2 (converted)
  half-life: 8.69 h
[5]; [16]
  AUC(0-inf): 291000 ng·h/mL
  C0: 105 µg/mL
  clearance: 1.77 mL/min/kg
  Vd: 0.773 L/kg
[5]; female, iv, 30.8 mg/kg, rats F, 30.8 mg/kg once-weekly IV, Day 13, read-out: T1/2 (converted)
  half-life: 6.06 h
[5]; [17]
  AUC(0-inf): 361000 ng·h/mL
  C0: 245 µg/mL
  clearance: 2.13 mL/min/kg
  Vd: 1.29 L/kg
[5]; female, iv, 46.3 mg/kg, rats F, 46.3 mg/kg once-weekly IV, Day 0, read-out: T1/2 (converted)
  half-life: 9.76 h
[5]; [18]
  AUC(0-inf): 387000 ng·h/mL
  C0: 240 µg/mL
  clearance: 2 mL/min/kg
  Vd: 0.806 L/kg
[5]; female, iv, 46.3 mg/kg, rats F, 46.3 mg/kg once-weekly IV, Day 13, read-out: T1/2 (converted)
  half-life: 5.76 h
[5]; [19]
  AUC(0-inf): 19200 ng·h/mL
  C0: 27.7 µg/mL
  clearance: 2.68 mL/min/kg
  Vd: 1.24 L/kg
[5]; male, iv, 3.1 mg/kg, rats M, 3.1 mg/kg once-weekly IV, Day 0, read-out: T1/2 (converted)
  half-life: 8.25 h
[5]; [20]
  AUC(0-inf): 21000 ng·h/mL
  C0: 24 µg/mL
  clearance: 2.47 mL/min/kg
  Vd: 1.5 L/kg
[5]; male, iv, 3.1 mg/kg, rats M, 3.1 mg/kg once-weekly IV, Day 13, read-out: T1/2 (converted)
  half-life: 9.67 h
[5]; [21]
  AUC(0-inf): 235000 ng·h/mL
  C0: 165 µg/mL
  clearance: 2.18 mL/min/kg
  Vd: 1.53 L/kg
[5]; male, iv, 30.8 mg/kg, rats M, 30.8 mg/kg once-weekly IV, Day 0, read-out: T1/2 (converted)
  half-life: 10.9 h
[5]; [22]
  AUC(0-inf): 329000 ng·h/mL
  C0: 202 µg/mL
  clearance: 1.56 mL/min/kg
  Vd: 1.15 L/kg
[5]; male, iv, 30.8 mg/kg, rats M, 30.8 mg/kg once-weekly IV, Day 13, read-out: T1/2 (converted)
  half-life: 10.4 h
[5]; [23]
  AUC(0-inf): 342000 ng·h/mL
  C0: 263 µg/mL
  clearance: 2.27 mL/min/kg
  Vd: 1.41 L/kg
[5]; male, iv, 46.3 mg/kg, rats M, 46.3 mg/kg once-weekly IV, Day 0, read-out: T1/2 (converted)
  half-life: 7.99 h
[5]; [24]
  AUC(0-inf): 380000 ng·h/mL
  C0: 269 µg/mL
  clearance: 2.03 mL/min/kg
  Vd: 1.12 L/kg
[5]; male, iv, 46.3 mg/kg, rats M, 46.3 mg/kg once-weekly IV, Day 13, read-out: T1/2 (converted)
  half-life: 7.35 h
[5]; rats F, 3.1 mg/kg once-weekly IV, Day 0
  DN AUCinf: 6.15 (μg · h/mL)/(mg/kg)
[5]; [25]
  Accumulation Ratio: 0.874
  DN AUCinf: 5.37 (μg · h/mL)/(mg/kg)
[5]; rats F, 30.8 mg/kg once-weekly IV, Day 0
  DN AUCinf: 7.70 (μg · h/mL)/(mg/kg)
[5]; [26]
  Accumulation Ratio: 1.23
  DN AUCinf: 9.45 (μg · h/mL)/(mg/kg)
[5]; rats F, 46.3 mg/kg once-weekly IV, Day 0
  DN AUCinf: 7.80 (μg · h/mL)/(mg/kg)
[5]; [27]
  Accumulation Ratio: 1.07
  DN AUCinf: 8.35 (μg · h/mL)/(mg/kg)
[5]; rats M, 3.1 mg/kg once-weekly IV, Day 0
  DN AUCinf: 6.19 (μg · h/mL)/(mg/kg)
[5]; [28]
  Accumulation Ratio: 1.09
  DN AUCinf: 6.76 (μg · h/mL)/(mg/kg)
[5]; rats M, 30.8 mg/kg once-weekly IV, Day 0
  DN AUCinf: 7.63 (μg · h/mL)/(mg/kg)
[5]; [29]
  Accumulation Ratio: 1.40
  DN AUCinf: 10.7 (μg · h/mL)/(mg/kg)
[5]; rats M, 46.3 mg/kg once-weekly IV, Day 0
  DN AUCinf: 7.39 (μg · h/mL)/(mg/kg)
[5]; [30]
  Accumulation Ratio: 1.11
  DN AUCinf: 8.20 (μg · h/mL)/(mg/kg)
[5]; rats, once-weekly dosing for 3 weeks
  accumulation or changes in TK parameters after repeated dosing: no accumulation or changes in TK parameters were evident
[6]; 294 patients, 0.025 mg/kg IV
  Adverse reaction: abdominal pain: 2.7%
  Adverse reaction: chest discomfort: 1%
  Adverse reaction: dyspepsia: 1%
  Adverse reaction: flushing: 1.7%
  Adverse reaction: hypersensitivity: 1%
  Adverse reaction: nausea: 15%
  Adverse reaction: pruritus: 1%
  Adverse reaction: vomiting: 5.8%
  patients with adverse reactions during the administration: 2.4%
[6]; typically
  time of occurrence of reactions after start of infusion: ≤ 15 min
